Paper PMC4810081, “Venetoclax (ABT-199) Might Act as a Perpetrator in Pharmacokinetic Drug–Drug Interactions” (Pharmaceutics, 2016)

Experiments:
Bcl-xL = tested on: Bcl-xL; parameters: method as in PMID 26639348, PMID 23291630; details: cited from earlier work
OATP1B3 = molecular target: T1, OATP1B3 (Homo sapiens, UniProt Q9NPD5); assay: OATP1B3 inhibition, 8-FcA uptake in HEK-OATP1B3 cells; format: in vitro ADME
T1 construct: expressed in transfected cells; host or cells: HEK293 (HEK-OATP1B3; gift of D. Keppler)
T1 sequence (Q9NPD5 whole entry): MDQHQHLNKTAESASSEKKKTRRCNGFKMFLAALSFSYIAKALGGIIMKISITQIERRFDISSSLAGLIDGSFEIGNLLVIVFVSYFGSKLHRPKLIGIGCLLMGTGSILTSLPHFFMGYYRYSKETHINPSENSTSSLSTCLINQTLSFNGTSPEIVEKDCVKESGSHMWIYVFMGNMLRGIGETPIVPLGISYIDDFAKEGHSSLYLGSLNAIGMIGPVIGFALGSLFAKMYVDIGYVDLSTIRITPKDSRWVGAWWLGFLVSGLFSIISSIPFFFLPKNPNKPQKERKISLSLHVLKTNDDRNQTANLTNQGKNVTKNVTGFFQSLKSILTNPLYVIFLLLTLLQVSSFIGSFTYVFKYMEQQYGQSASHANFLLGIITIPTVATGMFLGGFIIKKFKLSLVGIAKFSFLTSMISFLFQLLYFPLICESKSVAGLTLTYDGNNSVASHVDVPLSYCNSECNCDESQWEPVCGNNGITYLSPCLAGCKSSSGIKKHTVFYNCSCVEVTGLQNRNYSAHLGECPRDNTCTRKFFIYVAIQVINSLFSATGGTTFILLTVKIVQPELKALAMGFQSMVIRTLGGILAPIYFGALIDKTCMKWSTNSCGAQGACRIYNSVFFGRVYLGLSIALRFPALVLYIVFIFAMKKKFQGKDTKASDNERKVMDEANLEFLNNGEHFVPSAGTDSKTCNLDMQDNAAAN
Procedure: HEK293 cells. For assessing inhibition of OATP1B1 and OATP1B3, the human embryonic kidney cell line HEK293 stably transfected with OATP1B1 (HEK-OATP1B1), OATP1B3 (HEK-OATP1B3), or the empty control vector (HEK293-VCG418) were used. Cells were cultured under standard cell culture conditions with DMEM supplemented with 10% FCS, 2 mM of glutamine, 100 U/mL of penicillin, 100 µg/mL of streptomycin sulfate, and 800 µg/mL of G418 to maintain over-expression. Cells were kindly provided by D. Keppler (German Cancer Research Centre, Heidelberg, Germany).
Inhibition of OATP1B1 and OATP1B3 was analyzed in HEK-OATP1B1 and HEK-OATP1B3 cells by quantifying the uptake of the fluorescent substrate 8-FcA by flow cytometry as described previously. HEK293-VCG418 cells were used as a control. Inhibition of OATPs leads to a reduced uptake of 8-FcA into the cells. Each experiment was performed at least in triplicate, and venetoclax was tested from 0.05 up to 100 µM.

P-gp = assay: Western blot of P-gp protein expression in LS180 cells; format: in vitro ADME, human; details: four days, at 1 and 10 µM
Procedure: For the induction experiments, LS180 cells were seeded in 75 cm^2 culturing flasks and incubated for three days. Cells were then treated with a culture medium containing venetoclax (0.01–10 µM) in quintuplicate for four consecutive days. Rifampicin (20 µM) served as a positive control for PXR-driven genes and culture medium as a negative control. All incubation solutions were adjusted to 0.02% DMSO. After harvesting, cells were split for RNA and protein extraction.
To exemplarily verify the effects of venetoclax on mRNA expression, protein expressions of P-gp and CYP1A2 were analyzed in triplicate by SDS polyacrylamide gel electrophoresis (SDS-PAGE) and Western blotting. In brief, cell lysates containing 20 µg protein were mixed with 5× sample buffer (containing Tris–HCl, SDS, DTT, bromophenol blue, and glycerol) and subjected to 10% SDS-PAGE. Afterwards, proteins were electrotransferred to nitrocellulose nitrate membranes. Blots were blocked by incubation for 20–40 min with 5% Slim-Fast® (w/v) in phosphate-buffered saline containing 0.1% Tween®20. […] Bands were visualized by enhanced chemiluminescence using the SuperSignal®West Pico Chemiluminescent Substrate Kit and recorded by FluorChem Q SA AlphaView Version 3.2.2, Cell Biosciences (Santa Clara, CA, USA).

CYP1A2 = assay: Induction assay, CYP1A2 mRNA by real-time RT-PCR in LS180 cells; format: in vitro ADME, human; details: four days, 10 µM
Procedure: (§1) LS180 cells. The human colon adenocarcinoma cell line LS180 (available at ATCC, Manassas, VA, USA) is one of the standard models for investigating pregnane X receptor (PXR) and aryl hydrocarbon receptor (AhR) mediated induction and was thus used for induction experiments. Cells were cultured under standard cell culture conditions with DMEM supplemented with 10% FCS, 2 mM of glutamine, 100 U/mL of penicillin, 100 µg/mL of streptomycin sulfate, and 0.1 mM of nonessential amino acids.
(§2) For the induction experiments, LS180 cells were seeded in 75 cm^2 culturing flasks and incubated for three days. […]
(§3) RNA was isolated using the GenElute™ Mammalian Total RNA Miniprep Kit, and cDNA was synthesized with the RevertAid™ H Minus First Strand cDNA Synthesis Kit according to the manufacturer's instructions. mRNA expression was quantified by real-time RT-PCR with the LightCycler® 480 (Roche Applied Science, Mannheim, Germany) as described previously. […] Data were evaluated via calibrator-normalized relative quantification with efficiency correction using the LightCycler® 480 software version 1.5 (Roche Applied Science, Mannheim, Germany). […] The following target genes were quantified: CYP1A1, CYP1A2, CYP3A4, ABCB1, ABCC2, ABCG2, SLCO1B1 (coding for OATP1B1), UDP-glucuronosyltransferase 1A3 (UGT1A3), and UGT1A9.

ABCB1 = assay: Induction assay, ABCB1 mRNA by real-time RT-PCR in LS180 cells; format: in vitro ADME, human; details: four days, at higher concentrations
Procedure: as §1, §2, §3

[1] = Growth inhibition assay in L-MDR1 cells; format: cell-based, porcine; details: pig, L-MDR1 cells (LLC-PK1 over-expressing human ABCB1/P-gp)
Procedure: LLC-PK1 and L-MDR1 cells. […] L-MDR1 cells were kindly provided by A. H. Schinkel (The Netherlands Cancer Institute, Division of Experimental Therapy, Amsterdam, The Netherlands). The cells were cultured under standard cell culture conditions with medium M199 supplemented with 10% FCS, 2 mM of glutamine, 100 U/mL of penicillin, and 100 µg/mL of streptomycin sulfate. To maintain P-gp/ABCB1 expression the culture medium for L-MDR1 was supplemented with 0.64 µM of vincristine. One day before seeding the cells for the growth inhibition assay, both cell lines were fed with a vincristine-free culture medium. Growth inhibition assays in LS180 cells were conducted to determine suitable maximum concentrations for the induction assay without profound antiproliferative effects. Proliferation was quantified by crystal violet staining of the surviving cells as described previously. […] Growth inhibition assays in MDCKII, and their MRP2 or BCRP over-expressing counterparts ([…], MDCKII-BCRP) and in LLC-PK1 and the corresponding P-gp over-expressing cell line L-MDR1 were conducted to evaluate whether venetoclax sustains its efficacy in MDR cell lines.

With `CC1(C)CCC(CN2CCN(c3ccc(C(=O)NS(=O)(=O)c4ccc(NCC5CCOCC5)c([N+](=O)[O-])c4)c(Oc4cnc5[nH]ccc5c4)c3)CC2)=C(c2ccc(Cl)cc2)C1` [Venetoclax] as the compound, how does the Bcl-xL inhibition (Bcl-xL) read?
Its Bcl-xL inhibition is “does not inhibit”.

And the IC50 (OATP1B3)?
The IC50 was 26 ± 9.6 µM.

And the P-gp protein expression (P-gp)?
Its P-gp protein expression is “suppression”.

And the “mRNA expression of CYP1A2” value (CYP1A2)?
The value was “induced”.

What about the “mRNA expression of ABCB1” value (ABCB1) of the same compound?
The value was “suppressed”.

What about the IC50 ([1]; with LY335979 (P-gp inhibitor), L-MDR1 + LY335979 (1 µM)) of the same compound?
The IC50 was 25.7 ± 4.1 µM.

What about the IC50 ([1]; L-MDR1, P-gp over-expressing) of the same compound?
The IC50 was 53.1 ± 4.1 µM.
